Experimental data taken from patent US9676771B2, “Compounds for inhibiting drug-resistant strains of HIV-1 integrase” (priority 2013, dated 2017).
Like-named read-outs stand apart in the source and are kept apart here.

Key:
HIV-1 integrase = HIV-1 integrase (Human immunodeficiency virus type 1 group M subtype B, UniProt P12497); experiment: biochemical; assay type: biochemical
Procedure: In Vitro Integrase Assay.
Integrase reactions were carried out by adding drugs or an equivalent volume of 100% dimethyl sulfoxide (DMSO; used as the drug solvent) to a mixture of 20 nM DNA and 400 nM integrase in 50 mM morpholinepropanesulfonic acid (pH 7.2), 7.5 mM MgCl2, and 14 mM 2-mercaptoethanol. Reactions were performed at 37° C. for 2 h and quenched by the addition of an equal volume of loading buffer (formamide containing 1% sodium dodecyl sulfate, 0.25% bromophenol blue, and xylene cyanol). […] Dried gels were visualized using a Typhoon 8600 (GE Healthcare, Piscataway, N.J.). Densitometric analyses were performed using ImageQuant 5.1 software from GE Healthcare.

[1] = test system: HIV-1 constructs containing wild-type IN; experiment: microbe, parasite or virus in culture; assay type: cell-based; details: Human immunodeficiency virus 1; Table 3; WT IN; read-out: EC50 (nM, WT)
Source text: Single-Round HIV-1 Infectivity Assay.
Human embryonyl kidney cell culture cell line 293 was acquired from the American type Culture Collection (ATCC).
The virus-containing supernatants were then harvested, clarified by low-speed centrifugation, filtrated, and diluted for preparation in infection assays. […] Activity was normalized to infectivity in the absence of target compounds. KaleidaGraph (Synergy Software, Reading, Pa.) was used to perform regression analysis on the data. EC50 values were determined from the fit model.

in vitro = assay type: cell-based, human; details: human, Table 3; 50% reduction in the level of ATP in HOS cells
Procedure: Cellular Cytotoxicity Assay.
On the day of the screen, cells were treated with compounds at the appropriate concentration range chosen and incubated at 37° C. for 48 hrs. Cytotoxicity was measured by monitoring ATP levels via a luciferase reporter assay. Cells were lysed in 50 μL cell lysis buffer (PerkinElmer, Waltham, Mass.) and shaken at 700 rpm at room temperature for 5 mins After the addition of 50 μL of ATPlite buffer (PerkinElmer) directly onto the lysed cells and shaking at 700 rpm at room temperature for 5 mins, ATP levels were monitored by measuring luciferase activity using a microplate reader. Activity was normalized to cytotoxicity in the absence of target compounds. KaleidaGraph (Synergy Software, Reading, Pa.) was used to perform regression analysis on the data. CC50 values were determined from the fit model.

[2] = Table 1, 3′-processing, read-out: IC50 Values 3′-Processing
[3] = Table 1, strand transfer, read-out: IC50 Values Strand transfer
[4] = read-out: IC50 (3^+-Processing)
[5] = read-out: IC50 (Strand Transfer)
[6] = Table 4, 3′-processing, read-out: IC50 (3^+-Processing)
[7] = Table 4, strand transfer, read-out: IC50 (Strand Transfer)

Row | Structure (SMILES) | IC50 (HIV-1 integrase; [2]) | IC50 (HIV-1 integrase; [3]) | EC50 [1] | CC50 (in vitro) | also measured
1 | O=C(NCc1ccc(F)cc1F)c1c(O)c2cccnc2[nH]c1=O [XZ352, N-(2,4-difluorobenzyl)-4-hydroxy-2-oxo-1,2-dihydro-1,8-naphthyridine-3-carboxamide] | > 333 µM | 7.1 ± 1.8 µM |  |  | 
2 | O=C(NCc1ccc(F)cc1F)c1cc2ccccc2n(O)c1=O [XZ353, N-(2,4-difluorobenzyl)-1-hydroxy-2-oxo-1,2-dihydroquinoline-3-carboxamide] | > 333 µM | 19.7 ± 2.7 µM |  |  | 
3 | O=C(NCc1ccc(F)cc1)c1c(O)c2cccnc2[nH]c1=O [XZ364, N-(4-fluorobenzyl)-4-hydroxy-2-oxo-1,2-dihydro-1,8-naphthyridine-3-carboxamide] | 136 ± 16 µM | 5.1 ± 1.5 µM |  |  | 
4 | O=C(NCc1ccc(F)c(Cl)c1)c1c(O)c2cccnc2[nH]c1=O [XZ366, N-(3-chloro-4-fluorobenzyl)-4-hydroxy-2-oxo-1,2-dihydro-1,8-naphthyridine-3-carboxamide] | 125 ± 15 µM | 7.8 ± 1.1 µM |  |  | 
5 | O=C(NCc1ccc(F)c(F)c1)c1c(O)c2cccnc2[nH]c1=O [XZ368, N-(3,4-difluorobenzyl)-4-hydroxy-2-oxo-1,2-dihydro-1,8-naphthyridine-3-carboxamide] | 93 ± 8 µM | 8.1 ± 1.8 µM |  |  | 
6 | O=C(NCc1ccc(F)cc1F)c1cc2cccc(O)c2n(O)c1=O [XZ369, N-(2,4-difluorobenzyl)-1,8-dihydroxy-2-oxo-1,2-dihydroquinoline-3-carboxamide] | 43 ± 5 µM | 18 ± 7 µM |  |  | 
7 | COc1cccc2cc(C(=O)NCc3ccc(F)cc3F)c(=O)n(O)c12 [XZ370, N-(2,4-difluorobenzyl)-1-hydroxy-8-methoxy-2-oxo-1,2-dihydroquinoline-3-carboxamide] | > 333 µM | > 333 µM |  |  | 
8 | CNc1c(C(=O)NCc2ccc(F)cc2F)c(=O)n(O)c2ncccc12 [XZ371, N-(2,4-difluorobenzyl)-1-hydroxy-4-(methylamino)-2-oxo-1,2-dihydro-1,8-naphthyridine-3-carboxamide] |  |  | 3.1 ± 0.6 nM | > 250 µM | IC50 (HIV-1 integrase; [4]): 3.7 ± 0.4 µM; IC50 (HIV-1 integrase; [5]): 0.027 ± 0.004 µM
9 | O=C(NCc1ccc(F)c(Cl)c1)c1cc2cccc(O)c2n(O)c1=O [XZ374, N-(3-chloro-4-fluorobenzyl)-1,8-dihydroxy-2-oxo-1,2-dihydroquinoline-3-carboxamide] | 17 ± 1 µM | 0.53 ± 0.13 µM |  |  | 
10 | O=C(NCc1ccc(F)c(F)c1)c1cc2cccc(O)c2n(O)c1=O [XZ375, N-(3,4-difluorobenzyl)-1,8-dihydroxy-2-oxo-1,2-dihydroquinoline-3-carboxamide] | 24 ± 3 µM | 0.78 ± 0.22 µM |  |  | 
11 | CCCCCNc1c(C(=O)NCc2ccc(F)cc2F)c(=O)n(O)c2ncccc12 [XZ380, N-(2,4-difluorobenzyl)-1-hydroxy-2-oxo-4-(pentylamino)-1,2-dihydro-1,8-naphthyridine-3-carboxamide] |  |  | 7.4 ± 1.4 nM | 94.2 ± 24.4 µM | IC50 (HIV-1 integrase; [4]): 8.2 ± 1.6 µM; IC50 (HIV-1 integrase; [5]): 0.024 ± 0.009 µM
12 | CC(C)Nc1c(C(=O)NCc2ccc(F)cc2F)c(=O)n(O)c2ncccc12 [XZ381, N-(2,4-difluorobenzyl)-1-hydroxy-4-(isopropylamino)-2-oxo-1,2-dihydro-1,8-naphthyridine-3-carboxamide] |  |  | 7.2 ± 3 nM | > 250 µM | IC50 (HIV-1 integrase; [4]): 1.8 ± 0.2 µM; IC50 (HIV-1 integrase; [5]): 0.016 ± 0.004 µM
13 | O=C(NCc1ccc(F)cc1F)c1c(NCCc2ccccc2)c2cccnc2n(O)c1=O [XZ382, N-(2,4-difluorobenzyl)-1-hydroxy-2-oxo-4-(phenethylamino)-1,2-dihydro-1,8-naphthyridine-3-carboxamide] |  |  | 14.1 ± 7.9 nM | > 250 µM | IC50 (HIV-1 integrase; [4]): 8 ± 1.5 µM; IC50 (HIV-1 integrase; [5]): 0.05 ± 0.012 µM
14 | NCc1ccc(-c2ccc(Nc3c(C(=O)NCc4ccc(F)cc4F)c(=O)n(O)c4ncccc34)cc2)cc1 [XZ389, 4-((4′-(aminomethyl)-[1,1′-biphenyl]-4-yl)amino)-N-(2,4-difluorobenzyl)-1-hydroxy-2-oxo-1,2-dihydro-1,8-naphthyridine-3-carboxamide] |  |  | 411 ± 30 nM | 0.414 µM | IC50 (HIV-1 integrase; [6]): > 333 µM; IC50 (HIV-1 integrase; [7]): 29 ± 13 µM
15 | COC(=O)[C@H](C)Nc1c(C(=O)NCc2ccc(F)cc2F)c(=O)n(O)c2ncccc12 [XZ394, (S)-methyl 2-((3-((2,4-difluorobenzyl)carbamoyl)-1-hydroxy-2-oxo-1,2-dihydro-1,8-naphthyridin-4-yl)amino)propanoat] |  |  | 4.2 ± 1.6 nM | > 250 µM | 
16 | COC(=O)[C@@H](Nc1c(C(=O)NCc2ccc(F)cc2F)c(=O)n(O)c2ncccc12)c1ccccc1 [XZ396, (S)-methyl 2-((3-((2,4-difluorobenzyl)carbamoyl)-1-hydroxy-2-oxo-1,2-dihydro-1,8-naphthyridin-4-yl)amino)-2-phenylacetate] |  |  |  | > 250 µM | 
17 | COC(=O)[C@H](CO)Nc1c(C(=O)NCc2ccc(F)cc2F)c(=O)n(O)c2ncccc12 [XZ398, (S)-methyl 2-((3-((2,4-difluorobenzyl)carbamoyl)-1-hydroxy-2-oxo-1,2-dihydro-1,8-naphthyridin-4-yl)amino)-3-hydroxypropanoate] |  |  | 9.7 ± 3 nM | > 250 µM | IC50 (HIV-1 integrase; [4]): 5.8 ± 0.5 µM; IC50 (HIV-1 integrase; [5]): 0.0084 ± 0.0032 µM
18 | COC(=O)[C@@H](CO)Nc1c(C(=O)NCc2ccc(F)cc2F)c(=O)n(O)c2ncccc12 [XZ399, (R)-methyl 2-((3-((2,4-difluorobenzyl)carbamoyl)-1-hydroxy-2-oxo-1,2-dihydro-1,8-naphthyridin-4-yl)amino)-3-hydroxypropanoate] |  |  | 14.2 ± 3.71 nM | > 250 µM | IC50 (HIV-1 integrase; [4]): 4.4 ± 0.5 µM; IC50 (HIV-1 integrase; [5]): 0.013 µM
19 | NCCNc1c(C(=O)NCc2ccc(F)cc2F)c(=O)n(O)c2ncccc12 [XZ403, 4-((2-aminoethyl)amino)-N-(2,4-difluorobenzyl)-1-hydroxy-2-oxo-1,2-dihydro-1,8-naphthyridine-3-carboxamide] |  |  | 34.7 ± 10.5 nM | 9.6 ± 3.7 µM | IC50 (HIV-1 integrase; [4]): 4.5 ± 0.2 µM; IC50 (HIV-1 integrase; [5]): 0.039 ± 0.006 µM
20 | O=C(NCc1ccc(F)cc1F)c1c(O)c2ccc(N3CCCCC3)nc2n(O)c1=O [XZ409, N-(2,4-difluorobenzyl)-1,4-dihydroxy-2-oxo-7-(piperidin-1-yl)-1,2-dihydro-1,8-naphthyridine-3-carboxamide] |  |  |  |  | IC50 (HIV-1 integrase; [6]): > 333 µM; IC50 (HIV-1 integrase; [7]): 70 ± 16 µM
21 | Nc1c(C(=O)NCc2ccc(F)cc2F)c(=O)n(O)c2nc(N3CCCCC3)ccc12 [XZ410, 4-amino-N-(2,4-difluorobenzyl)-1-hydroxy-2-oxo-7-(piperidin-1-yl)-1,2-dihydro-1,8-naphthyridine-3-carboxamide] |  |  |  |  | IC50 (HIV-1 integrase; [6]): > 333 µM; IC50 (HIV-1 integrase; [7]): 54 ± 18 µM
22 | COC(=O)CNc1c(C(=O)NCc2ccc(F)cc2F)c(=O)n(O)c2nc(N3CCCCC3)ccc12 [XZ411, methyl 2-((3-((2,4-difluorobenzyl)carbamoyl)-1-hydroxy-2-oxo-7-(piperidin-1-yl)-1,2-dihydro-1,8-naphthyridin-4-yl)amino)acetate] |  |  |  |  | IC50 (HIV-1 integrase; [7]): 96 ± 40 µM
23 | O=C(NCc1ccc(F)cc1F)c1c(O)c2ccc(N3CCOCC3)nc2n(O)c1=O [XZ412, N-(2,4-difluorobenzyl)-1,4-dihydroxy-7-morpholino-2-oxo-1,2-dihydro-1,8-naphthyridine-3-carboxamide] |  |  |  |  | IC50 (HIV-1 integrase; [6]): > 333 µM; IC50 (HIV-1 integrase; [7]): 1.9 ± 0.2 µM
24 | Nc1c(C(=O)NCc2ccc(F)cc2F)c(=O)n(O)c2nc(N3CCOCC3)ccc12 [XZ413, 4-amino-N-(2,4-difluorobenzyl)-1-hydroxy-7-morpholino-2-oxo-1,2-dihydro-1,8-naphthyridine-3-carboxamide] |  |  |  |  | IC50 (HIV-1 integrase; [6]): > 333 µM; IC50 (HIV-1 integrase; [7]): 54 ± 10 µM
25 | COC(=O)CNc1c(C(=O)NCc2ccc(F)cc2F)c(=O)n(O)c2nc(N3CCOCC3)ccc12 [XZ414, methyl 2-((3-((2,4-difluorobenzyl)carbamoyl)-1-hydroxy-7-morpholino-2-oxo-1,2-dihydro-1,8-naphthyridin-4-yl)amino)acetate] |  |  |  |  | IC50 (HIV-1 integrase; [7]): 6.2 ± 0.8 µM
